Two molecules from ChEMBL document CHEMBL5036302, “Amphiol, an Antifungal Fungal Pigment from Pseudogymnoascus sp. PF1464” (2021) can be followed below.

Holding throughout (format): functional
One experiment concerns Aspergillus fumigatus. The experiment is described as follows: Antifungal activity against Aspergillus fumigatus assessed as inhibition of fungal growth by CLSI protocol based microbroth dilution method.
The test system of experiment [1] is Schizosaccharomyces pombe. Briefly: Antifungal activity against Schizosaccharomyces pombe assessed as inhibition of fungal growth by CLSI protocol based microbroth dilution method.
Another experiment relates to Escherichia coli. The experiment is described as follows: Antibacterial activity against Escherichia coli assessed as inhibition of bacterial growth by CLSI protocol based microbroth dilution method.
For a further experiment, the system named is Staphylococcus aureus. Briefly: Antibacterial activity against Staphylococcus aureus assessed as inhibition of bacterial growth by CLSI protocol based microbroth dilution method.
The subject of the next experiment is Candida albicans. The experiment is described as follows: Antifungal activity against Candida albicans assessed as inhibition of fungal growth by CLSI protocol based microbroth dilution method.

In brackets after ≈: the same amount, converted by molar mass.

Consider `CC(/C=C/C=C/C=C/C=C/C=C/C=C/c1cc(O)c([C@@H]2O[C@H](CO)[C@@H](O)[C@H](O)[C@H]2O)c(=O)o1)=C\[C@H](C)C(=O)[C@@H](C)C[C@@H](C)[C@H](C)O`, for which the MIC with Aspergillus fumigatus was 16 µg/mL (≈ 25 µM); in experiment [1], 0.8 µg/mL (≈ 1.25 µM); with Escherichia coli, more than 64 µg/mL; in the experiment with Staphylococcus aureus it was more than 64 µg/mL; with Candida albicans it was 8 µg/mL (≈ 12.5 µM).
Turning to `C[C@@H]1[C@H](O)[C@@H](C)/C=C/C=C/C=C/C=C/C=C/C=C/C=C/[C@H](O[C@@H]2O[C@H](C)[C@@H](O)[C@H](N)[C@@H]2O)C[C@@H]2O[C@](O)(C[C@@H](O)C[C@@H](O)[C@H](O)CC[C@@H](O)C[C@@H](O)CC(=O)O[C@H]1C)C[C@H](O)[C@H]2C(=O)O` [AMPHOTERICIN B], the MIC in experiment [1] was 0.13 µg/mL (≈ 0.141 µM).
